{"source": "patent US8936807B2", "about": "“Use of the cathelicidin LL-37 and derivatives thereof for wound healing” (Lipopeptide AB, priority 2003, dated 2015)", "test_system": "HaCat cells", "assay": "Proliferation of HaCat cells assessed by flowcytometry and Trypan-Blue", "format": "cell-based, human", "conditions": "for Increased Proliferation (%): vs baseline", "protocol": "HaCat cells were used for these experiments. HaCat cells are an immortalized human keratinocyte cell line (Boukamp et al., J Cell Biol 106:761-771, 1988), which is suitable for experimental keratinocyte research. HaCat cells were cultured in medium (DMEM, +10% FCS and PEST). Both types of cell cultures were treated with synthetic, bioactive LL-37 (lot YS 5253). […] Cells were harvested at different time-points (24 h, 48 h, 72 h and 96 h) and counted by flowcytometry (Becton-Dickinson) and stained by Trypan-Blue to evaluate viability. […] Proliferation and viability were also ascertained by measuring mitochondrial activity (WST-1, Roche, Cook et al. Anal Biochem 179:1-7, 1989).", "key": {"[1]": {"conditions": "LL-37 25 μg/ml, 10% serum, 96 h"}, "[2]": {"conditions": "LL-37 50 μg/ml, 10% serum, 96 h"}, "[3]": {"conditions": "LL-37 100 μg/ml, 2% serum, 96 h"}, "[4]": {"conditions": "LL-37 100 μg/ml, 10% serum, 96 h"}, "[5]": {"conditions": "LL-37 100 μg/ml, no lipid, 2% serum, 72 h"}, "[6]": {"conditions": "LL-37 100 μg/ml, no lipid, 10% serum, 72 h"}, "[7]": {"conditions": "LL-37 100 μg/ml, with lipid 0.2%, 2% serum, 72 h"}, "[8]": {"conditions": "LL-37 100 μg/ml, with lipid 0.2%, 10% serum, 72 h"}}, "data": [{"sequence": "LLGDFFRKSKEKIGKEFKRIVQRIKDFLRNLVPRTES [LL-37]", "values": [{"measurement": "Number of Cells (Mean)", "setting": "LL-37 25 μg/ml, 2% serum, 96 h", "result": 32130}, {"measurement": "Trypan Blue + (%)", "setting": "LL-37 25 μg/ml, 2% serum, 96 h", "result": "<1", "unit": "%"}, {"measurement": "Increased Proliferation (%)", "setting": "LL-37 25 μg/ml, 2% serum, 96 h", "result": 0, "unit": "%"}, {"measurement": "Number of Cells (Mean)", "setting": "[1]", "result": 36470}, {"measurement": "Trypan Blue + (%)", "setting": "[1]", "result": "<1", "unit": "%"}, {"measurement": "Increased Proliferation (%)", "setting": "[1]", "result": 13, "unit": "%"}, {"measurement": "Number of Cells (Mean)", "setting": "LL-37 50 μg/ml, 2% serum, 96 h", "result": 53620}, {"measurement": "Trypan Blue + (%)", "setting": "LL-37 50 μg/ml, 2% serum, 96 h", "result": "30-50%"}, {"measurement": "Increased Proliferation (%)", "setting": "LL-37 50 μg/ml, 2% serum, 96 h", "result": "Cytotoxic effect"}, {"measurement": "Number of Cells (Mean)", "setting": "[2]", "result": 40950}, {"measurement": "Trypan Blue + (%)", "setting": "[2]", "result": "<1", "unit": "%"}, {"measurement": "Increased Proliferation (%)", "setting": "[2]", "result": 27, "unit": "%"}, {"measurement": "Number of Cells (Mean)", "setting": "[3]", "result": 15120}, {"measurement": "Trypan Blue + (%)", "setting": "[3]", "result": 100, "unit": "%"}, {"measurement": "Increased Proliferation (%)", "setting": "[3]", "result": "Cytotoxic effect"}, {"measurement": "cytotoxic effect when lipid was added (in words)", "setting": "LL-37 100 μg/ml, 2% serum, lipid added", "result": "completely abolished"}, {"measurement": "Number of Cells (Mean)", "setting": "[4]", "result": 66430}, {"measurement": "Trypan Blue + (%)", "setting": "[4]", "result": "<1", "unit": "%"}, {"measurement": "Increased Proliferation (%)", "setting": "[4]", "result": 100, "unit": "%"}, {"measurement": "Trypan Blue staining (in words)", "setting": "LL-37 100 μg/ml, medium containing 2% FCS", "result": "all of the keratinocytes became positive with Trypan Blue staining"}, {"measurement": "Number of Cells (Mean)", "setting": "[5]", "result": 150500}, {"measurement": "Trypan Blue + (%)", "setting": "[5]", "result": 100, "unit": "%"}, {"measurement": "Increased Proliferation (%)", "setting": "[5]", "result": "Cytotoxic effect"}, {"measurement": "Number of Cells (Mean)", "setting": "[6]", "result": 88853}, {"measurement": "Trypan Blue + (%)", "setting": "[6]", "result": "<1", "unit": "%"}, {"measurement": "Increased Proliferation (%)", "setting": "[6]", "result": 61, "unit": "%"}, {"measurement": "Number of Cells (Mean)", "setting": "[7]", "result": 87360}, {"measurement": "Trypan Blue + (%)", "setting": "[7]", "result": "<1", "unit": "%"}, {"measurement": "Increased Proliferation (%)", "setting": "[7]", "result": 58, "unit": "%"}, {"measurement": "Number of Cells (Mean)", "setting": "[8]", "result": 91980}, {"measurement": "Trypan Blue + (%)", "setting": "[8]", "result": "<1", "unit": "%"}, {"measurement": "Increased Proliferation (%)", "setting": "[8]", "result": 66, "unit": "%"}, {"measurement": "proliferation of HaCat cells (in words)", "setting": "LL-37 25-100 μg/ml, media with 10% FCS", "result": "increases proliferation in a concentration-dependent manner"}]}]}
